Measured values: patent US8524682B2, “Compositions and methods for inhibiting EZH2” (The Regents of the University of Michigan, priority 2007, dated 2013)

Tests used:
Format in all cases: cell-based
EZH2 [1] = biological target: T1, EZH2 (Homo sapiens, UniProt Q15910); assay: E-cadherin promoter-luciferase reporter high throughput screen in EZH2 adenovirus infected cells; conditions: final compound concentration about 5 μM, 24 hours
T1 construct: expressed in transfected cells
Method: A high throughput screening protocol was used to identify small molecule inhibitors of EZH2. Primary breast cancer cells were transfected with the E-cadherin promoter luciferase reporter gene and infected with the EZH2 adenovirus to suppress luciferase expression 48 hours prior to compound addition. Eighteen hours prior to compound addition, cells were trypsinized and distributed into 384-well plates in 60 μl of medium using the Multidrop equipment. At time zero, compounds were transferred from 1.5 mM DMSO stocks to the cell plates in a final compound concentration of about 5 μM. […] After 24 hours, the expressed luciferase activity was measured by adding 50 μl of the medium and 10 μl of Steady-Glo luciferase reagent (Promega). Sample plates were read in the Pherastar plate reader (BMG Labtech). Each plate in the screen contains 320 compounds to be tested plus 64 control wells placed in the outer two columns on each side of the plate (>50,000 compounds are screened). […] More than 4000 small molecules were screened, which included synthetic chemicals as well as natural products that are available in the Center for Chemical Genomics (CCG) library at the University of Michigan.

EZH2 [2] = biological target: T1, EZH2; assay: Quantitative SYBR green RT-PCR of E cadherin transcripts in EZH2 overexpressing cells
Method: A, Chemical structure of the flavonoid isoliquiritigenin. B, Quantitative SYBR green RT-PCR of EZH2 and E cadherin transcripts in cell lines over expressing EZH2 and control adenoviruses. RT-PCR on each sample was performed in duplicate, and a ratio was calculated relative to the housekeeping genes GAPDH. Transcripts were also measured in cells that were treated with isoliquiritigenin or other small molecules.
(§1) A, Dose response of isoliquiritigenin on inhibiting EZH2 mediated repression. B, A reconstituted basement membrane invasion chamber assay was used to assess the invasion of breast epithelial cell line infected with EZH2 and control adenoviruses as well as SET domain mutant EZH2 adenovirus. EZH2 treated cells were also treated with SAHA, the HDAC inhibitor and isoliquiritigenin, the small molecule inhibitor of EZH2 and the control small molecule phloretin.

[3] = test system: HME cells overexpressing EZH2; assay: Basement membrane invasion chamber assay, breast cell line HME overexpressing EZH2
Method: as §1

T1 sequence (Q15910 whole entry): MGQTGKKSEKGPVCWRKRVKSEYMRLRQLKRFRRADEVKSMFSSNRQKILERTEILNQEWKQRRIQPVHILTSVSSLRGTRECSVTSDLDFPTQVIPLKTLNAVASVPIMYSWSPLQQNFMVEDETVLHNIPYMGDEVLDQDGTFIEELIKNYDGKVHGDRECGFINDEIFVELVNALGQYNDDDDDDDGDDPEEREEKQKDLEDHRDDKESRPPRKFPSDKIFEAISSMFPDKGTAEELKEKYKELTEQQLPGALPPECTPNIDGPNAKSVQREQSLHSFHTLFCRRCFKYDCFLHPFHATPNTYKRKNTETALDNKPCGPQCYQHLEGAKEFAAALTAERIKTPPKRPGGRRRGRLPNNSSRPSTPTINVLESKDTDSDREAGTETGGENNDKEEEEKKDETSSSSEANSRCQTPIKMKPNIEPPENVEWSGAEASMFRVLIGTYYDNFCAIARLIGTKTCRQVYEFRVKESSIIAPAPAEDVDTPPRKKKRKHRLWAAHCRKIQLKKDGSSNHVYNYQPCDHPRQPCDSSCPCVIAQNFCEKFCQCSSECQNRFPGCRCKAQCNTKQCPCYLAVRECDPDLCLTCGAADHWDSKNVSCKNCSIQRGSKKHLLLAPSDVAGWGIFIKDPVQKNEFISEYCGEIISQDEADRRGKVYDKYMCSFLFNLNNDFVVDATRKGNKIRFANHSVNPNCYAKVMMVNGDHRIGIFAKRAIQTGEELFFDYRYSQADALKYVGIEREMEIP

O=C(/C=C/c1ccc(O)cc1)c1ccc(O)cc1O [isoliquiritigenin]
EZH2 inhibitory activity (EZH2 [1]): potent small molecule inhibitor of EZH2 activity | inhibition of EZH2 mediated E cadherin repression (EZH2 [2]; RT-PCR, cells over expressing EZH2): significantly inhibit | concentration that optimally inhibits the EZH2 mediated E cadherin repression (EZH2 [2]; dose response): 16 µM | inhibition of invasion mediated by EZH2 overexpression [3]: inhibited this invasion
